Results: US20250228239A1, “MOLECULES HAVING PESTICIDAL UTILITY, AND INTERMEDIATES, COMPOSITIONS, AND PROCESSES, RELATED THERETO” (priority 2024, published 2025)
Read-outs that look alike come from different tables or passages of the source.

How the values were obtained:
Type in all cases: in vivo
[1] = system: Cabbage Looper (Trichoplusia ni, TRIPNI); test: Bioassays on Cabbage Looper (CL), 128-well diet tray assay; settings: Trichoplusia ni; for mortality at 50 µg/cm2: 168 h, second instar larvae, 50 μg/cm^2 of test molecule on artificial diet, 25° C., five to seven days, average of eight wells, read-out: CL % Control (or Mortality) rating
Summary of the method: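 Percent mortality, averaged across eight replicate wells, after second-instar larvae (1–5 per well) fed for five to seven days on diet dosed at 50 μg/cm^2. Compound was applied in acetone-water 90:10 and dried; trays kept vented at 25° C under 14:10 photoperiod.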

[2] = system: Yellow Fever Mosquito (Aedes aegypti, AEDSAE); settings: for YFM rating: Table ABC / ABC-DP rating; for YFM % Control (or Mortality) rating: about 1 day-old larvae, 4000 ppm master solution diluted with 90:10 water/acetone, 15 μL per well plus 220 μL larval mixture, 3 days
Summary of the method: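 Compounds from 4000 ppm DMSO stocks were diluted in 90:10 water/acetone and dispensed into wells, then infested with about 1-day-old larvae in liver-powder water. Covered plates were held at room temperature for 3 days and each well was scored for mortality against a rating scale; six replicate plates per compound.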

[3] = system: Beet Armyworm (Spodoptera exigua, LAPHEG); test: Bioassays on Beet Armyworm (BAW), 128-well diet tray assay; settings: Spodoptera exigua; for mortality at 50 µg/cm2: 168 h, second instar larvae, 50 μg/cm^2 of test molecule on artificial diet, 25° C., five to seven days, average of eight wells, read-out: BAW % Control (or Mortality) rating
Summary of the method: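 Diet-overlay assay: 50 μg/cm^2 compound applied in 90:10 acetone-water to artificial diet, allowed to dry, then infested with 1–5 L2 larvae/well; 8 wells/compound; covered, vented; 25° C., 14:10 L:D, 5–7 d; % mortality per well, averaged.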

[4] = Cabbage Looper, Table ABC / ABC-DP rating, read-out: CL rating
[5] = Beet Armyworm, Table ABC / ABC-DP rating, read-out: BAW rating
[6] = Table ABC: Biological Results, species CL, read-out: CL
[7] = Table ABC: Biological Results, species YFM
[8] = Table ABC: Biological Results, species BAW, read-out: BAW
[9] = Cabbage Looper, rating class, read-out: CL
[10] = Yellow Fever Mosquito, rating class
[11] = Beet Armyworm, rating class, read-out: BAW

Row | SMILES | pest or weed control at 50 µg/cm2 [1, 4] [%] | YFM rating ([2]; Yellow Fever Mosquito) | pest or weed control at 50 µg/cm2 [3, 5] [%] | further results
1 | O=C(NCC1CC1)NNC(=O)c1cc(NC(=O)[C@H]2[C@H](c3cc(Cl)cc(Cl)c3)C2(Cl)Cl)ccc1Cl (relative stereo) [F2538, trans-2-(2-Chloro-5-(2,2-dichloro-3-(3,5-dichlorophenyl)cyclopropane-1-carboxamido)benzoyl)-N-(cyclopropylmethyl)hydrazine-1-carboxamide] | 50 to 100 | A (80–100) | 50 to 100 | –
2 | O=C(NCC(F)(F)c1ccccc1)c1cc(NC(=O)[C@H]2[C@H](c3cc(Cl)cc(Cl)c3)C2(Cl)Cl)ccc1Cl (relative stereo) [F2077, trans-2-Chloro-5-(2,2-dichloro-3-(3,5-dichlorophenyl)cyclopropane-1-carboxamido)-N-(2,2-difluoro-2-phenylethyl)benzamide] | 50 to 100 | B (More than 0 – Less than 80) | 50 to 100 | –
3 | O=C(NN=CCC(F)(F)F)c1cc(NC(=O)[C@H]2[C@H](c3cc(Cl)cc(Cl)c3)C2(Cl)Cl)ccc1Cl (relative stereo) [F3008, trans-2,2-Dichloro-N-(4-chloro-3-(2-(3,3,3-trifluoropropylidene)hydrazine-1-carbonyl)phenyl)-3-(3,5-dichlorophenyl)cyclopropane-1-carboxamide] | 50 to 100 | A (80–100) | 50 to 100 | mortality at 50 µg/cm2 [1]: 50 to 100%; YFM % Control (or Mortality) rating [2]: A (80–100); mortality at 50 µg/cm2 [3]: 50 to 100%
4 | Nc1c(F)ccc(NC(=O)c2cc(NC(=O)[C@H]3[C@H](c4cc(Cl)cc(C(F)(F)F)c4)C3(Cl)Cl)ccc2Cl)c1F (relative stereo) [F1127, trans-N-(3-Amino-2,4-difluorophenyl)-2-chloro-5-(2,2-dichloro-3-(3-chloro-5-(trifluoromethyl)phenyl)cyclopropane-1-carboxamido)benzamide] | – | – | – | pest or weed control at 50 µg/cm2 [1, 6]: 50 to 100%; YFM [2, 7]: A (80–100); pest or weed control at 50 µg/cm2 [3, 8]: 50 to 100%
5 | Nc1c(F)ccc(NC(=O)c2cc(NC(=O)[C@H]3[C@H](c4ccc(Cl)c(C(F)F)c4)C3(Cl)Cl)ccc2Cl)c1F (relative stereo) [F1037, trans-N-(3-Amino-2,4-difluorophenyl)-2-chloro-5-(2,2-dichloro-3-(4-chloro-3-(difluoromethyl)phenyl)cyclopropane-1-carboxamido)benzamide] | – | – | – | pest or weed control at 50 µg/cm2 [1, 6]: 50 to 100%; YFM [2, 7]: A (80–100); pest or weed control at 50 µg/cm2 [3, 8]: 50 to 100%
6 | C=Cc1cc(NC(=O)c2cc(NC(=O)[C@H]3[C@H](c4cc(Cl)cc(Cl)c4)C3(Cl)Cl)ccc2Cl)ccc1F (relative stereo) [F1311, trans-2-chloro-5-(2,2-dichloro-3-(3,5-dichlorophenyl)cyclopropane-1-carboxamido)-N-(4-fluoro-3-vinylphenyl)benzamide] | – | – | – | pest or weed control at 50 µg/cm2 [1, 6]: 50 to 100%; YFM [2, 7]: A (80–100); pest or weed control at 50 µg/cm2 [3, 8]: 50 to 100%
7 | CN(NC(=O)c1cc(NC(=O)[C@H]2[C@H](c3ccc(F)c(Cl)c3)C2(Cl)Cl)ccc1Cl)c1ccccc1 [F2512, (1R,3R)-2,2-Dichloro-N-(4-chloro-3-(2-methyl-2-phenylhydrazine-1-carbonyl)phenyl)-3-(3-chloro-4-fluorophenyl)cyclopropane-1-carboxamide] | 50 to 100 | A (80–100) | 50 to 100 | –
8 | CCC(Cl)C(=O)Nc1c(F)ccc(NC(=O)c2cc(NC(=O)[C@H]3[C@H](c4ccc(F)c(C(F)(F)F)c4)C3(Cl)Cl)ccc2Cl)c1F (stereo partly drawn) [F1668, 2-Chloro-N-(3-(2-chlorobutanamido)-2,4-difluorophenyl)-5-((1R,3R)-2,2-dichloro-3-(4-fluoro-3-(trifluoromethyl)phenyl)cyclopropane-1-carboxamido)benzamide] | – | – | – | pest or weed control at 50 µg/cm2 [1, 9]: 50 to 100%; YFM [2, 10]: A (80–100); pest or weed control at 50 µg/cm2 [3, 11]: 50 to 100%
9 | O=C(Nc1c(F)ccc(NC(=O)c2cc(NC(=O)[C@H]3[C@H](c4ccc(Cl)c(Cl)c4)C3(Cl)Cl)ccc2Cl)c1F)c1ccno1 [F1671, N-(3-(2-Chloro-5-((1R,3R)-2,2-dichloro-3-(3,4-dichlorophenyl)cyclopropane-1-carboxamido)benzamido)-2,6-difluorophenyl)isoxazole-5-carboxamide] | – | – | – | pest or weed control at 50 µg/cm2 [1, 9]: 50 to 100%; YFM [2, 10]: B (More than 0 – Less than 80); pest or weed control at 50 µg/cm2 [3, 11]: 50 to 100%
10 | O=C(Nc1ccc(F)c(NC(=O)C(F)(F)F)c1F)c1cc(NC(=O)[C@H]2[C@H](c3cc(Cl)c(Cl)c(Cl)c3)C2(Cl)Cl)ccc1F [F1526, 5-((1R,3R)-2,2-Dichloro-3-(3,4,5-trichlorophenyl)cyclopropane-1-carboxamido)-N-(2,4-difluoro-3-(2,2,2-trifluoroacetamido)phenyl)-2-fluorobenzamide] | – | – | – | pest or weed control at 50 µg/cm2 [1, 9]: 50 to 100%; YFM [2, 10]: A (80–100); pest or weed control at 50 µg/cm2 [3, 11]: 50 to 100%
11 | NCCCC(=O)Nc1c(F)ccc(NC(=O)c2cc(NC(=O)[C@H]3[C@H](c4ccc(Cl)c(Cl)c4)C3(Cl)Cl)ccc2Cl)c1F [F1201, N-(3-(4-Aminobutanamido)-2,4-difluorophenyl)-2-chloro-5-((1R,3R)-2,2-dichloro-3-(3,4-dichlorophenyl)cyclopropane-1-carboxamido)benzamide] | – | – | – | pest or weed control at 50 µg/cm2 [1, 6]: 50 to 100%; YFM [2, 7]: A (80–100); pest or weed control at 50 µg/cm2 [3, 8]: 50 to 100%
12 | CN(N=CCC(F)(F)F)C(=O)c1cc(NC(=O)[C@H]2[C@H](c3cc(Cl)cc(Cl)c3)C2(Cl)Cl)ccc1Cl (relative stereo) [F3009, trans-2,2-dichloro-N-(4-chloro-3-(1-methyl-2-(3,3,3-trifluoropropylidene)hydrazine-1-carbonyl)phenyl)-3-(3,5-dichlorophenyl)cyclopropane-1-carboxamide] | 50 to 100 | A (80–100) | 50 to 100 | mortality at 50 µg/cm2 [1]: 50 to 100%; YFM % Control (or Mortality) rating [2]: A (80–100); mortality at 50 µg/cm2 [3]: 50 to 100%
13 | CCNC(=O)c1cc(NC(=O)[C@H]2[C@H](c3ccc(F)c(Cl)c3)C2(Cl)Cl)cc(C)c1Cl (relative stereo) [F2037, trans-2-Chloro-5-(2,2-dichloro-3-(3-chloro-4-fluorophenyl)cyclopropane-1-carboxamido)-N-ethyl-3-methylbenzamide] | 50 to 100 | A (80–100) | 50 to 100 | –
14 | N#Cc1ccc(NNC(=O)c2cc(NC(=O)[C@H]3[C@H](c4cc(Cl)cc(Cl)c4)C3(Cl)Cl)ccc2Cl)cc1 (relative stereo) [F2554, trans-2,2-Dichloro-N-(4-chloro-3-(2-(4-cyanophenyl)hydrazine-1-carbonyl)phenyl)-3-(3,5-dichlorophenyl)cyclopropane-1-carboxamide] | 50 to 100 | A (80–100) | 50 to 100 | –
15 | CNc1c(F)ccc(N(C)C(=O)c2cc(NC(=O)[C@H]3[C@H](c4ccc(Cl)c(Cl)c4)C3(Cl)Cl)ccc2Cl)c1F (relative stereo) [F1071, trans-2-Chloro-5-(2,2-dichloro-3-(3,4-dichlorophenyl)cyclopropane-1-carboxamido)-N-(2,4-difluoro-3-(methylamino)phenyl)-N-methylbenzamide] | – | – | – | pest or weed control at 50 µg/cm2 [1, 6]: 50 to 100%; YFM [2, 7]: A (80–100); pest or weed control at 50 µg/cm2 [3, 8]: 50 to 100%
16 | O=C(NCCC(F)(F)F)c1cc(NC(=O)[C@H]2[C@H](c3ccc(F)c(Cl)c3)C2(Cl)Cl)cc(C(F)(F)F)c1Cl (relative stereo) [F2055, trans-2-Chloro-5-(2,2-dichloro-3-(3-chloro-4-fluorophenyl)cyclopropane-1-carboxamido)-3-(trifluoromethyl)-N-(3,3,3-trifluoropropyl)benzamide] | 50 to 100 | A (80–100) | 50 to 100 | –
17 | O=C(COC(F)(F)F)Nc1c(F)ccc(NC(=O)c2cc(NC(=O)[C@H]3[C@H](c4ccc(F)c(Cl)c4)C3(Cl)Cl)ccc2Cl)c1F [F1768, 2-Chloro-5-((1R,3R)-2,2-dichloro-3-(3-chloro-4-fluorophenyl)cyclopropane-1-carboxamido)-N-(2,4-difluoro-3-(2-(trifluoromethoxy)acetamido)phenyl)benzamide] | 50 to 100 | A (80–100) | 50 to 100 | –
18 | O=C(Nc1ccc(F)c(NC(=O)C2(F)OC(F)(F)C(F)(F)C2(F)F)c1F)c1cc(NC(=O)[C@H]2[C@H](c3ccc(F)c(C(F)(F)F)c3)C2(Cl)Cl)ccc1Cl (stereo partly drawn) [F1782, N-(3-(2-Chloro-5-((1R,3R)-2,2-dichloro-3-(4-fluoro-3-(trifluoromethyl)phenyl)cyclopropane-1-carboxamido)benzamido)-2,6-difluorophenyl)-2,3,3,4,4,5,5-heptafluorotetrahydrofuran-2-carboxamide] | 50 to 100 | A (80–100) | 50 to 100 | –
